IC50 data for 14 compounds are collected here from PMC10253812, “Novel 2-alkythio-4-chloro-N-[imino(heteroaryl)methyl]benzenesulfonamide Derivatives: Synthesis, Molecular Structure, Anticancer Activity and Metabolic Stability” (International Journal of Molecular Sciences, 2023).

Assay [1] has as its system HaCaT (immortalized human keratinocytes). Briefly: MTT cell viability assay, non-tumor HaCaT. It counts as cell-based. Particulars: 72 h of incubation, non-tumor cell line. The procedure: (§1) Compounds 8–24 were evaluated in vitro for their cytotoxic effect against three human cancer cell lines, i.e., HeLa (cervical cancer), HCT-116 (colon cancer) and MCF-7 (breast cancer), and the non-tumor cell line HaCaT using the MTT assay after 72 h of incubation. The results of tests are presented in Table 1 as IC50, indicating the concentration required for 50% inhibition of cell viability. Compounds 8–10 and 14–18 are not presented in the Table 1 because of their low potency (IC50 > 100 µM).
We also performed an assay on the non-tumor cell line HaCaT (immortalized human keratinocytes) to assess if the effect of 11–13 was selective toward HeLa cells or resulted from a more general toxic activity.
(§2) All chemicals, if not stated otherwise, were obtained from Sigma-Aldrich (St. Louis, MO, USA). The MCF-7, HeLa and HaCaT cell lines were purchased from Cell Lines Services (Eppelheim, Germany), and the HCT-116 cell line was purchased from ATCC (ATCC-No: CCL-247). The cells were cultured in Dulbecco’s modified Eagle’s medium (DMEM) supplemented with 10% fetal bovine serum, 2 mM glutamine, 100 units/mL of penicillin and 100 μg/mL of streptomycin. The cultures were maintained in a humidified atmosphere with 5% CO2 at 37 °C, in an incubator (Heraeus, HeraCell).
(§3) Cytotoxicity assay: Cell viability was determined using the MTT (3-(4,5-dimethylthiazol-2-yl)-2,5diphenyltetrazoliumbromide) assay. The cells were seeded in 96-well plates at a density of 5 × 10^3 cells/well and treated for 24, 48 and 72 h with the examined compounds in the concentration range 1–100 μM. Following treatment, MTT (0.5 mg/mL) was added to the medium, and the cells were further incubated for 2 h at 37 °C. the cells were lysed with DMSO, and the absorbance of the formazan solution was measured at 550 nm with a plate reader (Victor, 1420 multilabel counter). The experiment was performed in triplicate. The values are expressed as the mean ± SD of at least three independent experiments.
(In general: Tetrazolium assays rely on reduction of a dye to a coloured formazan, in cell work by metabolically active cells.)

Assay [2] relates to MCF-7 (breast cancer) cell line. Nature of the assay: MTT cell viability assay, MCF-7. It counts as cell-based, human. The settings on record: MTT assay, 72 h of incubation. The procedure:
as §1, §2, §3

Assay [3] has as its system HeLa, HCT-116 and MCF-7 cell lines. Briefly: MTT screening, statements pooled over the three cancer cell lines. It counts as cell-based. The settings on record: Homo sapiens, 72 h, HCT-116, MCF-7, read-out: IC50 (low potency, not shown in Table 1). As to the method:
as §1, §2, §3

Assay [4] relates to HCT-116 (colon cancer) cell line. Nature of the assay: MTT cell viability assay, HCT-116. The assay is classed as cell-based. The settings on record: Homo sapiens, 72 h of incubation. As to the method:
as §1, §2, §3

Assay [5] has as its system HeLa (cervical cancer) cell line. Nature of the assay: MTT cell viability assay, HeLa. The settings on record: Homo sapiens, HeLa; MTT assay, 72 h of incubation; read-out: IC50 HeLa. The assay is classed as cell-based, human. The procedure:
as §1
The cytotoxic activity of 11–13 was determined in a time-dependent manner with the MTT assay (Figure 3).
HeLa cells were treated with 11, 12 and 13 in the concentration range of 0–20 µM. […] After 48 h, the IC50 values for compounds 11, 12 and 13 were 6, 7 and 6 µM, respectively.
as §2, §3

Turning to `N.N.[Cl][Pt][Cl]` [Cisplatin, reference compound], the IC50 in assay [1] stood at 7.7 ± 0.2 µM; in assay [2], 3 ± 0.1 µM.
On to `Cc1cc(S(=O)(=O)NC(=N)n2ccn(C)c2=S)c(SCc2ccccc2)cc1Cl` [Compound 8, 2-Benzylthio-4-chloro-N-[imino(3-methyl-2-thioxo-2,3-dihydro-1H-imidazol-1-yl)methyl]-5-methylbenzenesulfonamide], for which, in assay [3], the IC50 was over 100 µM.
`Cc1cc(S(=O)(=O)NC(=N)n2ccn(C)c2=S)c(SCc2cccc(C(F)(F)F)c2)cc1Cl` [Compound 9, 4-Chloro-N-[imino(3-methyl-2-thioxo-2,3-dihydro-1H-imidazol-1-yl)methyl]-5-methyl-2-(3-trifluoromethylbenzylthio)benzenesulfonamide]: in assay [3], the IC50 was over 100 µM.
In the case of `Cc1cc(S(=O)(=O)NC(=N)n2ccn(C)c2=S)c(SCc2ccc(C(F)(F)F)cc2)cc1Cl` [Compound 10, 4-Chloro-N-[imino(3-methyl-2-thioxo-2,3-dihydro-1H-imidazol-1-yl)methyl]-5-methyl-2-(4-trifluoromethylbenzylthio)benzenesulfonamide], the IC50 in assay [3] is over 100 µM.
As to `CCOC(=O)CSc1cc(Cl)c(C)cc1S(=O)(=O)NC(=N)n1ccn(C)c1=S` [Compound 14, 4-Chloro-2-ethoxycarbonylmethylthio-N-[imino(3-methyl-2-thioxo-2,3-dihydro-1H-imidazol-1-yl)methyl]-5-methylbenzenesulfonamide], the IC50 in assay [3] is over 100 µM.
Consider `Cc1cc(S(=O)(=O)NC(=N)n2ncn(C)c2=S)c(SCc2ccccc2)cc1Cl` [Compound 15, 2-Benzylthio-4-chloro-5-methyl-N-[imino(4-methyl-5-thioxo-4,5-dihydro-1H-1,2,4-triazol-1-yl)methyl]benzenesulfonamide], for which the IC50 in assay [3] is over 100 µM.
Consider `Cc1cc(S(=O)(=O)NC(=N)n2ncn(C)c2=S)c(SCc2ccc(C(F)(F)F)cc2)cc1Cl` [Compound 17, 4-Chloro-N-[imino(4-methyl-5-thioxo-4,5-dihydro-1H-1,2,4-triazol-1-yl)methyl]-5-methyl-2-(4-trifluoromethylbenzylthio)benzenesulfonamide], for which the IC50 in assay [3] was over 100 µM.
Take `Cc1cc(S(=O)(=O)NC(=N)n2ncn(C)c2=S)c(SCc2ccc(Cl)cc2)cc1Cl` [Compound 18, 4-Chloro-2-(4-chlorobenzylthio)-N-[imino(4-methyl-5-thioxo-4,5-dihydro-1H-1,2,4-triazol-1-yl)methyl]5-methylbenzenesulfonamide]: in assay [3], the IC50 was over 100 µM.
As to `Cc1cc(S(=O)(=O)NC(=N)n2c(=S)[nH]c3ccccc32)c(SCc2ccccc2)cc1Cl` [Compound 19, 2-Benzylthio-4-chloro-5-methyl-N-[imino-(2-thioxo-2,3-dihydro-1H-benzo[d]imidazol-1-yl)methyl]benzenesulfonamide], the IC50 in assay [2] (Homo sapiens, MCF7) was 82 ± 4 µM; in assay [4], 36 ± 1 µM; in assay [5], 60 ± 3 µM.
Turning to `Cc1cc(S(=O)(=O)NC(=N)n2c(=S)[nH]c3ccccc32)c(SCc2cccc(C(F)(F)F)c2)cc1Cl` [Compound 20, 4-Chloro-N-[imino-(2-thioxo-2,3-dihydro-1H-benzo[d]imidazol-1-yl)methyl]-5-methyl-2-(3-trifluoromethylbenzylthio)benzenesulfonamide], the IC50 was determined as 49 ± 1 µM in assay [2] (Homo sapiens, MCF7); 17 ± 0.5 µM in assay [4]; 43 ± 1 µM in assay [5].
For `Cc1cc(S(=O)(=O)NC(=N)n2c(=S)[nH]c3ccccc32)c(SCc2ccc(C(F)(F)F)cc2)cc1Cl` [Compound 21, 4-Chloro-N-[imino-(2-thioxo-2,3-dihydro-1H-benzo[d]imidazol-1-yl)methyl]-5-methyl-2-(4-trifluoromethylbenzylthio)benzenesulfonamide], the IC50 in assay [2] (Homo sapiens, MCF7) amounted to 62 ± 3 µM; in assay [4], 23 ± 0.2 µM; in assay [5], 52 ± 1 µM.
Take `Cc1cc(S(=O)(=O)NC(=N)n2c(=S)[nH]c3ccccc32)c(SCc2ccc(Cl)cc2)cc1Cl` [Compound 22, 4-Chloro-2-(4-chlorobenzylthio)-N-[imino-(2-thioxo-2,3-dihydro-1H-benzo[d]imidazol-1-yl)methyl]-5-methylbenzenesulfonamide]: the IC50 in assay [2] (Homo sapiens, MCF7) is 73 ± 2 µM; in assay [4] it was 27 ± 0.5 µM; in assay [5], 49 ± 2 µM.
Take `Cc1cc(S(=O)(=O)NC(=N)n2c(=S)[nH]c3ccccc32)c(SCc2cc3c(cc2Cl)OCO3)cc1Cl` [Compound 23, 4-Chloro-2-(6-chlorobenzo [1,3]dioxol-5-ylmethylthio)-N-[imino-(2-thioxo-2,3-dihydro-1H-benzo[d]imidazol-1-yl)methyl]-5-methylbenzenesulfonamide]: the IC50 in assay [2] (Homo sapiens, MCF7) came out at 50 ± 2 µM; in assay [4] it was 34 ± 0.3 µM; in assay [5] it was 57 ± 1 µM.
As to `Cc1cc(S(=O)(=O)NC(=N)n2c(=S)[nH]c3ccccc32)c(SCc2cccc3ccccc23)cc1Cl` [Compound 24, 4-Chloro-N-[imino-(2-thioxo-2,3-dihydro-1H-benzo[d]imidazol-1-yl)methyl]-5-methyl-2-(naphthalen-1-ylmethylthio)benzenesulfonamide], the IC50 in assay [2] (Homo sapiens, MCF7) turned out to be 56 ± 2 µM; in assay [4], 21 ± 0.6 µM; in assay [5], 33 ± 1 µM.

One may read the IC50 as the midpoint of a concentration-inhibition curve.
